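The concentration for 50% growth inhibition is given as GI50. At the TGI there is no net growth.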
Tests used:
Assay in all cases: NCI tumour cell line growth inhibition, 384-well format
NCI-H23 lung = test system: NCI-H23 lung
NCI-H322M lung = test system: NCI-H322M lung
NCI-H460 NSCLC = test system: NCI-H460 NSCLC
NCI-H522 lung = test system: NCI-H522 lung
NCI/ADR-RES ovarian = test system: NCI/ADR-RES ovarian
OVCAR-3 ovarian = test system: OVCAR-3 ovarian
OVCAR-4 ovarian = test system: OVCAR-4 ovarian
OVCAR-5 ovarian = test system: OVCAR-5 ovarian
OVCAR-8 ovarian = test system: OVCAR-8 ovarian
PC-3 prostate = test system: PC-3 prostate
RPMI-8226 leukemia = test system: RPMI-8226 leukemia
RXF 393 renal = test system: RXF 393 renal
SF-268 CNS = test system: SF-268 CNS
SF-295 CNS = test system: SF-295 CNS
SF-539 CNS = test system: SF-539 CNS
SK-MEL-2 melanoma = test system: SK-MEL-2 melanoma
SK-MEL-28 melanoma = test system: SK-MEL-28 melanoma
SK-MEL-5 melanoma = test system: SK-MEL-5 melanoma
SK-OV-3 ovarian = test system: SK-OV-3 ovarian
SN12C renal = test system: SN12C renal
SNB-19 CNS = test system: SNB-19 CNS
SR leukemia = test system: SR leukemia
SW-620 colon = test system: SW-620 colon
T-47D breast = test system: T-47D breast
TK-10 renal = test system: TK-10 renal
U251 glioblastoma = test system: U251 glioblastoma
UACC-257 melanoma = test system: UACC-257 melanoma
UACC-62 melanoma = test system: UACC-62 melanoma
UO-31 renal = test system: UO-31 renal

## COc1cc2c(cc1OC(C)C)[C@H](c1ccc(Cl)cc1)N(c1ccc(N(C)CC3CCC(N4CCN(C)C(=O)C4)CC3)cc1)C(=O)C2 (some centres not stated)
NCI-H23 lung
  TGI: 4370 nM
NCI-H322M lung
  GI50: 1710 nM
  TGI: 3270 nM
NCI-H460 NSCLC
  GI50: 316 nM
  TGI: 1420 nM
NCI-H522 lung
  GI50: 1860 nM
  TGI: 3330 nM
NCI/ADR-RES ovarian
  GI50: 1770 nM
  TGI: 3220 nM
OVCAR-3 ovarian
  GI50: 1690 nM
  TGI: 3080 nM
OVCAR-4 ovarian
  GI50: 1760 nM
  TGI: 3180 nM
OVCAR-5 ovarian
  GI50: 1850 nM
  TGI: 3310 nM
OVCAR-8 ovarian
  GI50: 1820 nM
  TGI: 3250 nM
PC-3 prostate
  GI50: 1790 nM
  TGI: 3190 nM
RPMI-8226 leukemia
  GI50: 1530 nM
  TGI: 2880 nM
RXF 393 renal
  GI50: 1690 nM
  TGI: 3070 nM
SF-268 CNS
  GI50: 1900 nM
  TGI: 3340 nM
SF-295 CNS
  GI50: 1620 nM
  TGI: 2990 nM
SF-539 CNS
  GI50: 1740 nM
  TGI: 3140 nM
SK-MEL-2 melanoma
  GI50: 1810 nM
  TGI: 3210 nM
SK-MEL-28 melanoma
  GI50: 1790 nM
  TGI: 3190 nM
SK-MEL-5 melanoma
  GI50: 1300 nM
  TGI: 2580 nM
SK-OV-3 ovarian
  GI50: 1580 nM
  TGI: 2940 nM
SN12C renal
  GI50: 1810 nM
  TGI: 3220 nM
SNB-19 CNS
  GI50: 1940 nM
  TGI: 3490 nM
SR leukemia
  GI50: 29.1 nM
  TGI: 101 nM
SW-620 colon
  GI50: 1910 nM
  TGI: 3360 nM
T-47D breast
  GI50: 1760 nM
  TGI: 3230 nM
TK-10 renal
  GI50: 1820 nM
  TGI: 3310 nM
U251 glioblastoma
  GI50: 1750 nM
  TGI: 3160 nM
UACC-257 melanoma
  GI50: 1350 nM
  TGI: 2640 nM
UACC-62 melanoma
  GI50: 92.4 nM
  TGI: 1580 nM
UO-31 renal
  GI50: 288 nM
  TGI: 1310 nM

From PubChem BioAssay (NCI)
